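48-hour exposure; five concentrations; linearly interpolated endpoints. Abbreviation: GI50, concentration required for 50% inhibition of growth.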 Calls of active or inactive are those of the source. Cut-off read from the data, not from the text of the source: active = GI50 up to about 1.1 µM and inactive = higher.
How the values were obtained:
Assay in all cases: inhibition of tumour cell growth, NCI panel, 48 h
HOP-92 = system: HOP-92
DU-145 = system: DU-145
NCI-H23 = system: NCI-H23
OVCAR-3 = system: OVCAR-3
KM12 = system: KM12
SK-MEL-5 = system: SK-MEL-5
UACC-257 = system: UACC-257
MDA-N = system: MDA-N
Malme-3M = system: Malme-3M
OVCAR-4 = system: OVCAR-4
SF-295 = system: SF-295
SF-539 = system: SF-539
MCF7 = system: MCF7
MDA-MB-231 = system: MDA-MB-231
CAKI-1 = system: CAKI-1
HCC 2998 = system: HCC 2998
T47D = system: T47D
MDA-MB-435 = system: MDA-MB-435
NCI-H460 = system: NCI-H460
CCRF-CEM = system: CCRF-CEM

Row | Compound | GI50 (HOP-92) | GI50 (DU-145) | GI50 (NCI-H23) | GI50 (OVCAR-3) | GI50 (KM12) | GI50 (SK-MEL-5) | GI50 (UACC-257) | GI50 (MDA-N) | GI50 (Malme-3M) | GI50 (OVCAR-4) | GI50 (SF-295) | GI50 (SF-539) | GI50 (MCF7) | GI50 (MDA-MB-231) | GI50 (CAKI-1) | GI50 (HCC 2998) | GI50 (T47D) | GI50 (MDA-MB-435) | GI50 (NCI-H460) | GI50 (CCRF-CEM)
1 | O=c1c2ccccc2nc(-c2cc3c(cc2Cl)Sc2nccn2S3(=O)=O)n1-c1ccccc1 | 22.9 µM (inactive) | 20.8 µM (inactive) | 62.5 µM (inactive) | 15.9 µM (inactive) | 11.1 µM (inactive) | 45.3 µM (inactive) | 18 µM (inactive) | 15.6 µM (inactive) | > 100 µM (inactive) | 17.9 µM (inactive) | 21.6 µM (inactive) | 20.4 µM (inactive) | 14.2 µM (inactive) | 18.4 µM (inactive) | > 100 µM (inactive) | 15.1 µM (inactive) | 8.93 µM (inactive) | 22.8 µM (inactive) | 37.3 µM (inactive) | 
2 | COC(=O)[C@@H]1C[C@]2(Br)c3ccccc3N(S(=O)(=O)c3ccccc3)[C@@H]2N1C(=O)OC | > 100 µM (inactive) | 43.7 µM (inactive) | 37.3 µM (inactive) | > 100 µM (inactive) | > 100 µM (inactive) | > 100 µM (inactive) | 0.0285 µM (active) | > 100 µM (inactive) | > 100 µM (inactive) | 73.8 µM (inactive) |  | > 100 µM (inactive) | > 100 µM (inactive) | > 100 µM (inactive) | 59.8 µM (inactive) | 84.3 µM (inactive) | > 100 µM (inactive) | > 100 µM (inactive) | > 100 µM (inactive) | > 100 µM (inactive)
3 | C/C(=N\NC(=O)c1ccncc1)c1ccccc1Cl | > 100 µM (inactive) | > 100 µM (inactive) | > 100 µM (inactive) | > 100 µM (inactive) | > 100 µM (inactive) | > 100 µM (inactive) | > 100 µM (inactive) | > 100 µM (inactive) | > 100 µM (inactive) | > 100 µM (inactive) | > 100 µM (inactive) | > 100 µM (inactive) | > 100 µM (inactive) | > 100 µM (inactive) | > 100 µM (inactive) |  | > 100 µM (inactive) | > 100 µM (inactive) | > 100 µM (inactive) | > 100 µM (inactive)
4 | O=c1[nH]c(NCc2cccnc2)nc2[nH]cnc12 | > 100 µM (inactive) | > 100 µM (inactive) | > 100 µM (inactive) | > 100 µM (inactive) | > 100 µM (inactive) | > 100 µM (inactive) | > 100 µM (inactive) | > 100 µM (inactive) | > 100 µM (inactive) | > 100 µM (inactive) | > 100 µM (inactive) | > 100 µM (inactive) | > 100 µM (inactive) | > 100 µM (inactive) | > 100 µM (inactive) | > 100 µM (inactive) | > 100 µM (inactive) | > 100 µM (inactive) | > 100 µM (inactive) | > 100 µM (inactive)
5 | Cc1cc2nc(C=C(C(F)(F)F)C(F)(F)F)sc2cc1C | 4.66 µM (inactive) | 3.37 µM (inactive) | 1.46 µM (inactive) | 1.16 µM (inactive) | 1.7 µM (inactive) | 2.49 µM (inactive) | 4.55 µM (inactive) | 1.44 µM (inactive) | 1.44 µM (inactive) | 2.99 µM (inactive) | 3.15 µM (inactive) | 1.54 µM (inactive) | 2.63 µM (inactive) | 2.82 µM (inactive) | 2.64 µM (inactive) | 3.18 µM (inactive) | 0.142 µM (active) | 1.21 µM (inactive) | 3.58 µM (inactive) | 0.0333 µM (active)
6 | COC(=O)C(Cc1c[nH]c2ccccc12)NP(=O)(O)OCC1OC(n2cc(F)c(=O)[nH]c2=O)CC1O (centres undefined) | 31.4 µM (inactive) | 43.9 µM (inactive) | > 56 µM (inactive) | > 100 µM (inactive) | > 96.2 µM (inactive) | 77.3 µM (inactive) | > 100 µM (inactive) | > 100 µM (inactive) | > 100 µM (inactive) | > 100 µM (inactive) | > 91.2 µM (inactive) | 4.71 µM (inactive) | 7.35 µM (inactive) | > 100 µM (inactive) |  | 99.3 µM (inactive) | > 32.5 µM (inactive) | > 100 µM (inactive) | 1.14 µM (inactive) | 3.59 µM (inactive)
7 | CCOP(C)(=O)/C(Cc1ccc(OC)c(OC)c1)=N\O (centres undefined) | > 100 µM (inactive) | > 100 µM (inactive) | > 100 µM (inactive) | > 100 µM (inactive) | > 100 µM (inactive) | > 100 µM (inactive) |  | > 100 µM (inactive) | > 100 µM (inactive) | > 100 µM (inactive) | > 100 µM (inactive) | > 100 µM (inactive) | > 100 µM (inactive) | > 100 µM (inactive) | > 100 µM (inactive) | > 100 µM (inactive) | > 100 µM (inactive) | > 100 µM (inactive) | > 100 µM (inactive) | > 100 µM (inactive)
8 | NC1=Nc2cc(C(F)(F)F)ccc2Sc2nc3ccccc3n21 | 7.6 µM (inactive) | > 94.6 µM (inactive) | 31.3 µM (inactive) | 33.1 µM (inactive) | > 37 µM (inactive) | 6.73 µM (inactive) | 41.2 µM (inactive) | 5.53 µM (inactive) | > 86.1 µM (inactive) | 17.7 µM (inactive) | > 57.9 µM (inactive) | > 46.5 µM (inactive) | > 76.9 µM (inactive) | 38.1 µM (inactive) | 84.9 µM (inactive) | > 94.8 µM (inactive) | 26.6 µM (inactive) | > 100 µM (inactive) | 10.1 µM (inactive) | 2.64 µM (inactive)
9 | CCOC(=O)C1=NNC(C(=O)c2ccccc2)C1c1ccccc1 (centres undefined) | 2.07 µM (inactive) | 13.2 µM (inactive) | 2.42 µM (inactive) | 3.42 µM (inactive) | 6.87 µM (inactive) | 1.8 µM (inactive) | 2.61 µM (inactive) | 1.85 µM (inactive) | 2.19 µM (inactive) | 7.4 µM (inactive) | 16.9 µM (inactive) | 2.17 µM (inactive) | 1.91 µM (inactive) | 3.94 µM (inactive) | 1.83 µM (inactive) | 1.96 µM (inactive) | 4.24 µM (inactive) | 1.91 µM (inactive) |  | 1.64 µM (inactive)
10 | CC1(C)CCC(C)(C)C1C(=O)NC(O)C(=O)O (centres undefined) | 2.43 µM (inactive) | > 100 µM (inactive) | > 10 µM (inactive) |  |  | > 100 µM (inactive) |  | > 100 µM (inactive) |  |  |  | > 100 µM (inactive) | > 100 µM (inactive) | > 100 µM (inactive) |  | > 100 µM (inactive) | > 100 µM (inactive) | > 100 µM (inactive) | > 100 µM (inactive) | > 100 µM (inactive)
11 | Cc1ccccc1C(=O)N/N=C/c1ccc(Sc2nccn2C)c([N+](=O)[O-])c1 | 14.3 µM (inactive) | 88.3 µM (inactive) | > 100 µM (inactive) | > 100 µM (inactive) | 66.7 µM (inactive) | 36.4 µM (inactive) | > 100 µM (inactive) | 32.7 µM (inactive) | 69.3 µM (inactive) | 56.2 µM (inactive) | 58.5 µM (inactive) | > 100 µM (inactive) | > 100 µM (inactive) | 72.3 µM (inactive) | 78.9 µM (inactive) | 45.3 µM (inactive) | 45.3 µM (inactive) | 25.9 µM (inactive) | 49 µM (inactive) | 36.5 µM (inactive)
12 | CC1(C)OCC2OC3([C@@H]4OC(C)(C)O[C@H]4CO)OC(C)(C)OC3C2O1 (some centres undefined) | > 100 µM (inactive) | > 100 µM (inactive) | > 100 µM (inactive) | > 100 µM (inactive) | > 100 µM (inactive) | > 100 µM (inactive) | > 100 µM (inactive) | > 100 µM (inactive) |  | > 100 µM (inactive) | > 100 µM (inactive) | > 100 µM (inactive) | > 100 µM (inactive) | > 100 µM (inactive) | > 100 µM (inactive) | > 100 µM (inactive) | > 100 µM (inactive) | > 100 µM (inactive) | > 100 µM (inactive) | > 100 µM (inactive)
13 | c1ccc2c(C3CCN(CCN4CCOCC4)C3)c[nH]c2c1 (centres undefined) | > 100 µM (inactive) | > 100 µM (inactive) | > 100 µM (inactive) | > 100 µM (inactive) | > 100 µM (inactive) | > 100 µM (inactive) | > 100 µM (inactive) | > 100 µM (inactive) | > 100 µM (inactive) | > 100 µM (inactive) | > 100 µM (inactive) |  | > 100 µM (inactive) | > 100 µM (inactive) | > 100 µM (inactive) | 47 µM (inactive) | > 100 µM (inactive) | > 100 µM (inactive) | > 100 µM (inactive) | > 100 µM (inactive)
14 | C[C@]12CC[C@@H]3c4ccc(OCC(=O)O)cc4CC[C@H]3[C@@H]1CCC2=O | > 100 µM (inactive) | > 100 µM (inactive) | > 100 µM (inactive) | > 100 µM (inactive) | > 100 µM (inactive) | > 100 µM (inactive) | > 100 µM (inactive) | > 100 µM (inactive) | > 100 µM (inactive) | > 100 µM (inactive) | > 100 µM (inactive) | > 100 µM (inactive) | > 100 µM (inactive) | > 100 µM (inactive) | > 100 µM (inactive) |  | > 100 µM (inactive) | > 100 µM (inactive) | > 100 µM (inactive) | 1.32 µM (inactive)

From ChEMBL document CHEMBL1201862, “PubChem BioAssay data set” (2004)
